Data as given in paper PMC3469822, “ATP-Driven Remodeling of the Linker Domain in the Dynein Motor” (Structure(London, England:1993), 2012).

Key:
[1] = target: T1, cytoplasmic dynein motor domain (380 kDa) (Dictyostelium discoideum, UniProt P34036); test: cryo-EM reconstruction of head, […] Å; format: binding; settings: 1 mM ADP, 4 mM MgSO4, pH 7.0; ligand itself not resolved
T1 construct: gene dhcA; tail-less motor domain V1388-I4730, N-terminal His6 and FLAG tags, 380 kDa

[2] = target: T2, cytoplasmic dynein motor domain (380 kDa) (Dictyostelium discoideum, UniProt P34036, E2027Q); test: cryo-EM reconstruction of head, […] Å; format: binding; settings: 1 mM ATP, 4 mM MgSO4, pH 7.0; AAA1 Walker B mutant that binds but does not hydrolyse ATP; ligand itself not resolved
T2 construct: gene dhcA; tail-less motor domain V1388-I4730, N-terminal His6 and FLAG tags, 380 kDa
T2 sequence (P34036 1388-4730 E2027Q): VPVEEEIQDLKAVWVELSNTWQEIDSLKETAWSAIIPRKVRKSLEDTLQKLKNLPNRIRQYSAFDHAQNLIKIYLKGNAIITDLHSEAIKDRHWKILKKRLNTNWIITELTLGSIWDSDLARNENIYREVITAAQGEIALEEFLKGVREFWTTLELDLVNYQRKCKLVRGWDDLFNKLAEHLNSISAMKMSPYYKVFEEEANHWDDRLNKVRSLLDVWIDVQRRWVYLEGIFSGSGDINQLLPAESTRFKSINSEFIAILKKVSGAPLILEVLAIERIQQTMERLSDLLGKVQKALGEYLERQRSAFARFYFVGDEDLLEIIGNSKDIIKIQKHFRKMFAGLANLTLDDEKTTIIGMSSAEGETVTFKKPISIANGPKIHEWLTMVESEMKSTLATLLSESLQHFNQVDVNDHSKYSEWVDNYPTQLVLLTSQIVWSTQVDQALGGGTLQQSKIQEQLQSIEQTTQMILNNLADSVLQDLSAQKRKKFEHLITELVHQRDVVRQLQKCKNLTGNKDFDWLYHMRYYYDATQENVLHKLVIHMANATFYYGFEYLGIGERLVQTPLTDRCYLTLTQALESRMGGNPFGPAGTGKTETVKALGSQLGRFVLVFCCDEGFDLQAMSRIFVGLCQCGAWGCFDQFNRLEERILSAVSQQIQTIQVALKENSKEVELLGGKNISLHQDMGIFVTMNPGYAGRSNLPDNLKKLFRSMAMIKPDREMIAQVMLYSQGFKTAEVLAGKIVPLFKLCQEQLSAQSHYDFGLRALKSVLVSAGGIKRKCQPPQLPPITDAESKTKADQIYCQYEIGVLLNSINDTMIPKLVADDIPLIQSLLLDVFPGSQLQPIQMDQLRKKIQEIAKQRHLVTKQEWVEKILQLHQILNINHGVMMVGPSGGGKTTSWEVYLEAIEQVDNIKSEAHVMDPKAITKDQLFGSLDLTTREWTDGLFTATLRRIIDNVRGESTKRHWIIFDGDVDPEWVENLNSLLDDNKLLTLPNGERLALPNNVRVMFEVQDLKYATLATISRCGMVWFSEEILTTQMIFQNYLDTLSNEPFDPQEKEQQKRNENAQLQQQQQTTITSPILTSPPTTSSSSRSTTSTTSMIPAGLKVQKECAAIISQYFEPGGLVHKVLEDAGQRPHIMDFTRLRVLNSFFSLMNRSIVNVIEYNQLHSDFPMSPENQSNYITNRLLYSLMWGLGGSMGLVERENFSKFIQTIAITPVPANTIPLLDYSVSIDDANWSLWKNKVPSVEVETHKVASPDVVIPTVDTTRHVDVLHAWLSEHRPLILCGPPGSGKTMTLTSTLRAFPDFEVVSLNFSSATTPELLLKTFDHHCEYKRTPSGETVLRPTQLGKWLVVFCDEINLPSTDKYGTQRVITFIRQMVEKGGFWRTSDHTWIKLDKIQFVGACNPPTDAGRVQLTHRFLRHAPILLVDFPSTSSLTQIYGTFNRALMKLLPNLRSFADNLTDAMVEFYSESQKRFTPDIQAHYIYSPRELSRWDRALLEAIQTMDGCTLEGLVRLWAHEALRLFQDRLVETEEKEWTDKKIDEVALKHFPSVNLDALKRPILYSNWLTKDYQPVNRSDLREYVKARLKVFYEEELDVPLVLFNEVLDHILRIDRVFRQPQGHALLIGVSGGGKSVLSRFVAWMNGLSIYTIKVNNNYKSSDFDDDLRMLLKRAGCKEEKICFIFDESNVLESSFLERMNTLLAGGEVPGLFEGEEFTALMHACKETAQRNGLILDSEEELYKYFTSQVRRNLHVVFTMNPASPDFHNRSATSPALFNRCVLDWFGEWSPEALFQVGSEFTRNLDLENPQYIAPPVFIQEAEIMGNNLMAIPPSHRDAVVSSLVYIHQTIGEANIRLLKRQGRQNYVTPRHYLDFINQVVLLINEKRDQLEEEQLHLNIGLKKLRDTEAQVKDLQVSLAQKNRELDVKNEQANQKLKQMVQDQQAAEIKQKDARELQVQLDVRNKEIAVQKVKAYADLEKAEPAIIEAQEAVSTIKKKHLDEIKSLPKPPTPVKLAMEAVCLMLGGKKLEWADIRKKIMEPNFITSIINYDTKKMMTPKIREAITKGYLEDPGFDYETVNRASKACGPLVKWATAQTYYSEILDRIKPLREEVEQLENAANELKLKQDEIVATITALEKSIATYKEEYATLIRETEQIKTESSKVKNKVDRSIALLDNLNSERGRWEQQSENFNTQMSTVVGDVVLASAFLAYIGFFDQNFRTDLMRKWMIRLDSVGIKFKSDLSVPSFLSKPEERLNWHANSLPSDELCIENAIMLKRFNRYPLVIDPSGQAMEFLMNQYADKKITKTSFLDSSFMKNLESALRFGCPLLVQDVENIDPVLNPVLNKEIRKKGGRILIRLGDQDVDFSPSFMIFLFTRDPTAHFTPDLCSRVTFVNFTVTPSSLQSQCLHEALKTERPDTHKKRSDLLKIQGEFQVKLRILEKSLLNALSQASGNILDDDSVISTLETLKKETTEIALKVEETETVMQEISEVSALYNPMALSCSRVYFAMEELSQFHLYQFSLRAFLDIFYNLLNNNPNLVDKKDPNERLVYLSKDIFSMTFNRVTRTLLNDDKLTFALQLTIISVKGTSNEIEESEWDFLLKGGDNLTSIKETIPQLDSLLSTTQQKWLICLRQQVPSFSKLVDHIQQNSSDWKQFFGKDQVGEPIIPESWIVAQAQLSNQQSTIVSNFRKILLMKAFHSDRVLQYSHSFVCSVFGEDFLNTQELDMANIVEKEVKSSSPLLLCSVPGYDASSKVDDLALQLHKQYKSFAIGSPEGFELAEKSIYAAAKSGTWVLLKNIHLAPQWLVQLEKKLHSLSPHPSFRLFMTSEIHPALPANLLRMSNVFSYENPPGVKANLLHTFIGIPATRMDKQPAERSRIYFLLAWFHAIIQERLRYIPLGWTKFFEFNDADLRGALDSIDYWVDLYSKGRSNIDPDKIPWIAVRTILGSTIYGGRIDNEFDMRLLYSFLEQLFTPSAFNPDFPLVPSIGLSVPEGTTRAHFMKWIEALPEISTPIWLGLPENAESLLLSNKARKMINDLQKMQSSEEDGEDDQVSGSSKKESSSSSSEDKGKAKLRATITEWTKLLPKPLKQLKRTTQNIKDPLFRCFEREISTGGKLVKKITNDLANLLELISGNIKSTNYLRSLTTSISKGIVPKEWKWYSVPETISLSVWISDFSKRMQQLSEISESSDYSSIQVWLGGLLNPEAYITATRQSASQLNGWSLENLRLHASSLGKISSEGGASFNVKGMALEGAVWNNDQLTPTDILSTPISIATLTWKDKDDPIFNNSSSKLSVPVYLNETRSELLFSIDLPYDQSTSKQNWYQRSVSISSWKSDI

T1 sequence (P34036 1388-4730): as the sequence (P34036 1388-4730 E2027Q) above, with Q640E counted along it

Structure (SMILES) | cryo-EM reconstruction of head, 23 Å [1] | cryo-EM reconstruction of head, 25 Å [2]
Nc1ncnc2c1ncn2[C@@H]1O[C@H](COP(=O)(O)OP(=O)(O)O)[C@@H](O)[C@H]1O [ADP] | Cryo-EM reconstruction of the head domain of cytoplasmic dynein in the presence of ADP | –
Nc1ncnc2c1ncn2[C@@H]1O[C@H](COP(=O)(O)OP(=O)(O)OP(=O)(O)O)[C@@H](O)[C@H]1O [ATP] | – | cytoplasmic dynein head, bearing a E2027Q substitution, in the ATP state
